What was measured:
[1] = M4N stability in 11-14 mg/mL PEG300/HP-β-CD solutions at room temperature (RP-HPLC); type: physicochemical; conditions: for Observed M4N: room temperature
Protocol: To support manufacturing specifications, this study examined the 24-hour room temperature stability of combinations of PEG300/HP-β-CD at varying M4N target concentrations. Stock samples of M4N stocks were prepared in 100% PEG 300 at drug concentrations of 33-56 mg/mL at 60° C. as follows.
M4N bulk drug was solubilized to concentrations of 33, 44, 48, 52, 55 and 56 mg/mL (w/w) in PEG 300 using the procedure set forth in Examples 13 and 16, following incubation of at least 2 hours at 60° C. Vigorous vortexing and mixing were necessary for complete solubilization of M4N above 44 mg/mL. The M4N stock solutions were filtered through a 0.45 μm SFCA filter and used within 30 minutes of preparation. Separately, a solution of 40% (w/v) HP-β-CD was prepared in sterile WFI and filtered. Combinations of the 40% HP-β-CD stock and the M4N/PEG 300 stocks were combined in 1.5 mL polypropylene microtubes.
The requisite amount of M4N stock was added to 40% HP-β-CD to yield the final concentrations of drug and excipients listed in Table 28. Samples were gently rotated (˜12 rpm) at room temperature. At 2 and 24 hours of incubation, samples were centrifuged 2 minutes at 13,000 rpm and 50 μL aliquots were removed for RP-HPLC analysis.

[2] = Solubility of M4N in water-insoluble lipids (visual inspection); type: physicochemical; conditions: for solutions stable: corn oil; for stable at room temperature: sesame oil

SMILES: COc1ccc(C[C@@H](C)[C@@H](C)Cc2ccc(OC)c(OC)c2)cc1OC [Formulation M4N, meso-1,4-bis(3,4-dimethoxyphenyl)-2,3-dimethylbutane]
- Observed M4N ([1]; 11 mg/mL M4N, 20% PEG300, 32% HP-β-CD, t = 2 hours): 11.5 mg/mL
- Observed M4N ([1]; 11 mg/mL M4N, 20% PEG300, 32% HP-β-CD, t = 24 hours): 11.4 mg/mL
- Observed M4N ([1]; 11 mg/mL M4N, 25% PEG300, 30% HP-β-CD, t = 2 hours): 11.3 mg/mL
- Observed M4N ([1]; 11 mg/mL M4N, 25% PEG300, 30% HP-β-CD, t = 24 hours): 11.3 mg/mL
- Observed M4N ([1]; 11 mg/mL M4N, 33% PEG300, 27% HP-β-CD, t = 2 hours): 11.4 mg/mL
- Observed M4N ([1]; 11 mg/mL M4N, 33% PEG300, 27% HP-β-CD, t = 24 hours): 11.3 mg/mL
- Observed M4N ([1]; 12 mg/mL M4N, 25% PEG300, 30% HP-β-CD, t = 2 hours): 11.8 mg/mL
- Observed M4N ([1]; 12 mg/mL M4N, 25% PEG300, 30% HP-β-CD, t = 24 hours): 11.6 mg/mL
- Observed M4N ([1]; 13 mg/mL M4N, 25% PEG300, 30% HP-β-CD, t = 2 hours): 12.7 mg/mL
- Observed M4N ([1]; 13 mg/mL M4N, 25% PEG300, 30% HP-β-CD, t = 24 hours): 12.7 mg/mL
- Observed M4N ([1]; 14 mg/mL M4N, 25% PEG300, 30% HP-β-CD, t = 2 hours): 13.5 mg/mL
- Observed M4N ([1]; 14 mg/mL M4N, 25% PEG300, 30% HP-β-CD, t = 24 hours): 13.5 mg/mL
- stability ([1]; 11-14 mg/mL M4N, 25% PEG 300 and 30% HP-β-CD, 24 hours at room temperature): stable
- Stability Time at Room Temperature ([2]; 33% Peppermint Oil, 33% Tween ® 20, 33% PEG 400, M4N 60 mg/mL): >3 days
- Dissolution After Heating ([2]; 33% Peppermint Oil, 33% Tween ® 20, 33% PEG 400, M4N 60 mg/mL, 40° C.): Y at 40 °C
- Dissolution After Heating ([2]; 40% Peppermint Oil, 40% PEG 400, 20% Glycerol, M4N 52 mg/mL, 40° C.): Y at 40 °C
- Dissolution After Heating ([2]; 45% Peppermint Oil, 45% PEG 400, 10% Glycerol, M4N 59 mg/mL, 40° C.): Y at 40 °C
- Stability Time at Room Temperature ([2]; 50% Peppermint Oil, 50% PEG 300, M4N 40 mg/mL): >7 days
- Dissolution After Heating ([2]; 50% Peppermint Oil, 50% PEG 300, M4N 40 mg/mL, 35° C.): Y at 35 °C
- Stability Time at Room Temperature ([2]; 50% Peppermint Oil, 50% PEG 300, M4N 60 mg/mL): >7 days
- Dissolution After Heating ([2]; 50% Peppermint Oil, 50% PEG 300, M4N 60 mg/mL, 35° C.): Y at 35 °C
- Dissolution After Heating ([2]; 50% Peppermint Oil, 50% PEG 300, M4N 125 mg/mL, 35° C.): Y at 35 °C
- Stability Time at Room Temperature ([2]; 50% Peppermint Oil, 50% PEG 400, M4N 40 mg/mL): >7 days
- Dissolution After Heating ([2]; 50% Peppermint Oil, 50% PEG 400, M4N 40 mg/mL, 40° C.): Y at 40 °C
- Stability Time at Room Temperature ([2]; 50% Peppermint Oil, 50% PEG 400, M4N 60 mg/mL): >7 days
- Dissolution After Heating ([2]; 50% Peppermint Oil, 50% PEG 400, M4N 60 mg/mL, 40° C.): Y at 40 °C
- Dissolution After Heating ([2]; 50% Peppermint Oil, 50% PEG 400, M4N 100 mg/mL, 40° C.): Y at 40 °C
- Dissolution After Heating ([2]; 50% Peppermint Oil, 50% PEG 400, M4N 125 mg/mL, 40° C.): Y at 40 °C
- Stability Time at Room Temperature ([2]; 50% Peppermint Oil, 50% Sesame Oil, M4N 20 mg/mL): >3 days
- Stability Time at Room Temperature ([2]; 50% Peppermint Oil, 50% Sesame Oil, M4N 40 mg/mL): >3 days
- Dissolution After Heating ([2]; 50% Peppermint Oil, 50% Sesame Oil, M4N 40 mg/mL, 40° C.): Y at 40 °C
- Stability Time at Room Temperature ([2]; 50% Peppermint Oil, 50% Sesame Oil, M4N 60 mg/mL): >3 days
- Dissolution After Heating ([2]; 50% Peppermint Oil, 50% Sesame Oil, M4N 60 mg/mL, 40° C.): Y at 40 °C
- Stability Time at Room Temperature ([2]; 50% Peppermint Oil, 50% Tween ® 20, M4N 40 mg/mL): >3 days
- Dissolution After Heating ([2]; 50% Peppermint Oil, 50% Tween ® 20, M4N 40 mg/mL, 40° C.): Y at 40 °C
- Stability Time at Room Temperature ([2]; 50% Peppermint Oil, 50% Tween ® 20, M4N 60 mg/mL): >3 days
- Dissolution After Heating ([2]; 50% Peppermint Oil, 50% Tween ® 20, M4N 60 mg/mL, 40° C.): Y at 40 °C
- Dissolution After Heating ([2]; 50% Peppermint Oil, 50% Tween ® 20, M4N 125 mg/mL, 40° C.): Y at 40 °C
- Stability Time at Room Temperature ([2]; 60% Peppermint Oil, 40% PEG 300, M4N 60 mg/mL): >3 days
- Dissolution After Heating ([2]; 60% Peppermint Oil, 40% PEG 300, M4N 60 mg/mL, 40° C.): Y at 40 °C
- Dissolution After Heating ([2]; 60% Peppermint Oil, 40% PEG 400, M4N 60 mg/mL, 40° C.): Y at 40 °C
- Stability Time at Room Temperature ([2]; 75% Sesame Oil, 9% Tween ® 20, 16% Glycerol, M4N 24.3 mg/mL): <7 days
- Dissolution After Heating ([2]; 75% Sesame Oil, 9% Tween ® 20, 16% Glycerol, M4N 24.3 mg/mL, 60° C.): Y at 60 °C
- Dissolution After Heating ([2]; 80% Olive Oil, 20% Soybean Oil, M4N 60 mg/mL, 70° C.): Y at 70 °C
- Dissolution After Heating ([2]; 85% Sesame Oil, 15% Tween ® 20, M4N 40 mg/mL, 45° C.): Y at 45 °C
- Dissolution After Heating ([2]; 85% Sesame Oil, 15% Tween ® 20, M4N 60 mg/mL, 55° C.): Y at 55 °C
- solution upon cooling ([2]; 85% sesame oil and 15% Tween® 20, M4N 60 mg/mL (55° C.) and 40 mg/mL (45° C.)): did not stay in solution
- Stability Time at Room Temperature ([2]; 89% Sesame Oil, 11% Tween ® 20, M4N 29 mg/mL): >7 days
- Dissolution After Heating ([2]; 89% Sesame Oil, 11% Tween ® 20, M4N 29 mg/mL, 60° C.): Y at 60 °C
- Stability Time at Room Temperature ([2]; 100% Corn Oil, M4N 1 mg/mL): >3 days
- Dissolution After Heating ([2]; 100% Corn Oil, M4N 1 mg/mL, 60° C.): Y at 60 °C
- Stability Time at Room Temperature ([2]; 100% Corn Oil, M4N 10 mg/mL): >3 days
- Dissolution After Heating ([2]; 100% Corn Oil, M4N 10 mg/mL, 60° C.): Y at 60 °C
- Stability Time at Room Temperature ([2]; 100% Corn Oil, M4N 20 mg/mL): <3 days
- Dissolution After Heating ([2]; 100% Corn Oil, M4N 20 mg/mL, 60° C.): Y at 60 °C
- Stability Time at Room Temperature ([2]; 100% Corn Oil, M4N 40 mg/mL): <3 days
- Dissolution After Heating ([2]; 100% Corn Oil, M4N 40 mg/mL, 60° C.): Y at 60 °C
- Stability Time at Room Temperature ([2]; 100% Corn Oil, M4N 50 mg/mL): <3 days
- Dissolution After Heating ([2]; 100% Corn Oil, M4N 50 mg/mL, 60° C.): Y at 60 °C
- Stability Time at Room Temperature ([2]; 100% Corn Oil, M4N 60 mg/mL): <1 days
- Dissolution After Heating ([2]; 100% Corn Oil, M4N 60 mg/mL, 60° C.): Y at 60 °C
- Dissolution After Heating ([2]; 100% Corn Oil, M4N 100 mg/mL, 60° C.): Y at 60 °C
- Stability Time at Room Temperature ([2]; 100% Mineral Oil, M4N 10 mg/mL): >7 days
- Dissolution After Heating ([2]; 100% Mineral Oil, M4N 10 mg/mL, 60° C.): Y at 60 °C
- Stability Time at Room Temperature ([2]; 100% Mineral Oil, M4N 50 mg/mL): <1 days
- Dissolution After Heating ([2]; 100% Mineral Oil, M4N 50 mg/mL, 60° C.): Y at 60 °C
- Dissolution After Heating ([2]; 100% Mineral Oil, M4N 100 mg/mL, 60° C.): Y at 60 °C
- Dissolution After Heating ([2]; 100% Mineral Oil, M4N 200 mg/mL, 60° C.): Y at 60 °C
- Dissolution After Heating ([2]; 100% Olive Oil, M4N 30 mg/mL, 60° C.): Y at 60 °C
- Stability Time at Room Temperature ([2]; 100% Sesame Oil, M4N 10 mg/mL): >3 days
- Stability Time at Room Temperature ([2]; 100% Sesame Oil, M4N 20 mg/mL): >3 days
- Dissolution After Heating ([2]; 100% Sesame Oil, M4N 20 mg/mL, 60° C.): Y at 60 °C
- Stability Time at Room Temperature ([2]; 100% Sesame Oil, M4N 30 mg/mL): <3 days
- Dissolution After Heating ([2]; 100% Sesame Oil, M4N 30 mg/mL, 60° C.): Y at 60 °C
- Stability Time at Room Temperature ([2]; 100% Sesame Oil, M4N 50 mg/mL): <1 days
- Dissolution After Heating ([2]; 100% Sesame Oil, M4N 50 mg/mL, 60° C.): Y at 60 °C
- Stability Time at Room Temperature ([2]; 100% Soybean Oil, M4N 10 mg/mL): >7 days
- Dissolution After Heating ([2]; 100% Soybean Oil, M4N 10 mg/mL, 60° C.): Y at 60 °C
- Dissolution After Heating ([2]; 100% Soybean Oil, M4N 30 mg/mL, 60° C.): Y at 60 °C
- Dissolution After Heating ([2]; 100% Soybean Oil, M4N 50 mg/mL, 60° C.): Y at 60 °C
- Stability Time at Room Temperature ([2]; Peppermint Oil, M4N 1 mg/mL): >3 days
- Stability Time at Room Temperature ([2]; Peppermint Oil, M4N 10 mg/mL): >3 days
- Stability Time at Room Temperature ([2]; Peppermint Oil, M4N 20 mg/mL): >3 days
- Stability Time at Room Temperature ([2]; Peppermint Oil, M4N 40 mg/mL): >3 days
- Dissolution After Heating ([2]; Peppermint Oil, M4N 40 mg/mL, 40° C.): Y at 40 °C
- Stability Time at Room Temperature ([2]; Peppermint Oil, M4N 60 mg/mL): <3 days
- Dissolution After Heating ([2]; Peppermint Oil, M4N 60 mg/mL, 40° C.): Y at 40 °C
- Stability Time at Room Temperature ([2]; Peppermint Oil, M4N 100 mg/mL): <1 days
- Dissolution After Heating ([2]; Peppermint Oil, M4N 100 mg/mL, 40° C.): Y at 40 °C
- Stability Time at Room Temperature ([2]; Peppermint Oil, M4N 125 mg/mL): <1 days
- Dissolution After Heating ([2]; Peppermint Oil, M4N 125 mg/mL, 40° C.): Y at 40 °C
- Stability Time at Room Temperature ([2]; Sesame Oil, Tween ® 20 and Glycerol: 10% Oil emulsion in 90% saline, M4N 2.4 mg/mL): <1 days
- solutions stable ([2]; M4N 60 mg/mL): less than 1 day
- solutions stable ([2]; M4N 1 and 10 mg/mL): greater than 3 days
- solutions stable ([2]; M4N 20, 40 and 50 mg/mL): less than 3 days
- solution after cooling ([2]; olive oil, M4N 30 mg/mL, soluble at 60° C.): did not remain in solution after cooling
- stable at room temperature ([2]; M4N 10 mg/mL and 20 mg/mL): more than 3 days
- stable at room temperature ([2]; M4N 30 mg/mL): less than 3 days

From patent publication US20080096967A1, “Formulations for Injection of Catecholic Butanes, Including Ndga Compounds, Into Animals” (priority 2005, published 2008)
